Results from patent US20080234266A1, “Squaric Acid Derivatives II” (priority 2005, published 2008).

Target: T1, CHK1 kinase (Homo sapiens, UniProt O14757)
T1 construct: glutathione S-transferase (GST); made in house; host or cells: Sf21 insect cells (S. frugiperda), baculovirus
T1 sequence (O14757 1-476): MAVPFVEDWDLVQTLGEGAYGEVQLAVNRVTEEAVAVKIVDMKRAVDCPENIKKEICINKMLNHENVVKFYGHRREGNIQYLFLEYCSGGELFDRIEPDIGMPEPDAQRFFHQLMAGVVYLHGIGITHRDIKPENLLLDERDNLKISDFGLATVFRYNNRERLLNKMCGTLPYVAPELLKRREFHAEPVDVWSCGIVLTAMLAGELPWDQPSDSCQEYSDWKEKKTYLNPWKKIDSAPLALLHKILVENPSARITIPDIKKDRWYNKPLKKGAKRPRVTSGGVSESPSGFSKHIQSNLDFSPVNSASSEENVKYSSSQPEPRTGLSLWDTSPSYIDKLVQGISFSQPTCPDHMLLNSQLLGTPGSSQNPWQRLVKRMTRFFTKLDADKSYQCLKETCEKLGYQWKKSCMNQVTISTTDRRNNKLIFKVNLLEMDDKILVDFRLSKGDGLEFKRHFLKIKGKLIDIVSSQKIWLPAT
Assay: Flashplate method (CHK1), measurement of the CHK1 kinase activity
Assay type: biochemical
Conditions: class symbols; 'Affinity to receptors'
Method in brief: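 GST-tagged CHK1 expressed in Sf21 insect cells, incubated at 30 °C with biotinylated CHKtide (0.15 μg per well) and γ33P-ATP in pH 7.5 buffer (EGTA, Mg acetate, mercaptoethanol, 0.1% BSA). Stopped with EDTA, captured on streptavidin Flashplates and counted by scintillation. IC50 set against uninhibited reaction and 0.1 μM staurosporine as zero.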

Row | Compound | IC50
1 | COC(=O)CC(Nc1c(Nc2ccc3[nH]cnc3c2)c(=O)c1=O)c1cccc(O)c1 (stereo not shown) [Compound A101, methyl 3-[2-(1H-benzimidazol-5-ylamino)-3,4-dioxocyclobut-1-enylamino]-3-(3-hydroxy-phenyl)propionate] | < 1 µM
2 | COc1cccc([C@H](C)Nc2c(Nc3ccc4c(c3)ncn4C)c(=O)c2=O)c1 [Compound A51, 3-[(S)-1-(3-methoxyphenyl)ethylamino]-4-(1-methyl-1H-benzimidazol-5-ylamino)cyclobut-3-ene-1,2-dione] | > 1 µM
3 | O=c1c(NCc2ccc3cc[nH]c3c2)c(Nc2ccc3[nH]cnc3c2)c1=O [Compound A137, 3-(1H-benzimidazol-5-ylamino)-4-[(1H-indol-6-ylmethyl)amino]cyclobut-3-ene-1,2-dione] | > 1 µM
4 | O=c1c(NCc2cccc(O)c2)c(Nc2ccc3nccn3c2)c1=O [Compound A49, 3-(imidazo[1,2-a]pyridin-6-ylamino)-4-(3-hydroxybenzylamino)cyclobut-3-ene-1,2-dione] | < 1 µM
5 | O=c1c(NCc2cccc(O)c2)c(Nc2ccc3scnc3c2)c1=O [Compound A119, 3-(benzothiazol-5-ylamino)-4-(3-hydroxy-benzylamino)cyclobut-3-ene-1,2-dione] | > 1 µM
6 | Cc1cc2nccn2cc1Nc1c(NCc2cccc(O)c2)c(=O)c1=O [Compound A54, 3-(3-hydroxybenzylamino)-4-(7-methyl-imidazo[1,2-a]pyridin-6-ylamino)cyclobut-3-ene-1,2-dione] | > 1 µM
7 | COc1cccc(C(CCC2OCCCO2)Nc2c(Nc3ccc4[nH]cnc4c3)c(=O)c2=O)c1 (stereo not shown) [Compound A138, 3-(1H-benzimidazol-5-ylamino)-4-[3-[1,3]-dioxan-2-yl-1-(3-methoxyphenyl)propyl-amino]cyclobut-3-ene-1,2-dione] | > 1 µM
8 | O=c1c(NCc2ccc(O)c(O)c2)c(Nc2ccc3[nH]cnc3c2)c1=O [Compound A87, 3-(1H-benzimidazol-5-ylamino)-4-(3,4-di-hydroxybenzylamino)cyclobut-3-ene-1,2-dione] | < 1 µM
9 | O=c1c(NCc2cccc(-n3cccc3)c2)c(Nc2ccc3[nH]cnc3c2)c1=O [Compound A35, 3-(1H-benzimidazol-5-ylamino)-4-(3-pyrrol-1-ylbenzylamino)cyclobut-3-ene-1,2-dione] | > 1 µM
10 | CCN(CC)CCn1cnc2ccc(Nc3c(N[C@H](C)c4cccc(OC)c4)c(=O)c3=O)cc21 [Compound A65, 3-[3-(2-diethylaminoethyl)-3H-benzimidazol-5-ylamino]-4-[(R)-1-(3-methoxyphenyl)ethyl-amino]cyclobut-3-ene-1,2-dione] | > 1 µM
11 | COc1ccc(CNc2c(Nc3ccc4[nH]cnc4c3)c(=O)c2=O)cc1O [Compound A91, 3-(1H-benzimidazol-5-ylamino)-4-(3-hydroxy-4-methoxybenzylamino)cyclobut-3-ene-1,2-dione] | > 1 µM
12 | O=c1c(NCc2cc(O)cc(O)c2)c(Nc2ccc3[nH]cnc3c2)c1=O [Compound A94, 3-(1H-benzimidazol-5-ylamino)-4-(3,5-di-hydroxybenzylamino)cyclobut-3-ene-1,2-dione] | < 1 µM
13 | COC(=O)Nc1cccc(CNc2c(Nc3ccc4[nH]cnc4c3)c(=O)c2=O)c1 [Compound A128, 3-(1H-benzimidazol-5-ylamino)-4-(3-methoxycarbonylaminobenzylamino)-cyclobut-3-ene-1,2-dione] | > 1 µM
14 | O=CNc1cccc(CNc2c(Nc3ccc4[nH]cnc4c3)c(=O)c2=O)c1 [Compound A134, 3-(1H-benzimidazol-5-ylamino)-4-(3-formyl-aminobenzylamino)cyclobut-3-ene-1,2-dione] | > 1 µM
15 | O=C(O)c1cccc(CNc2c(Nc3ccc4[nH]cnc4c3)c(=O)c2=O)c1 [Compound A130, 3-(1H-benzimidazol-5-ylamino)-4-(3-carboxy-benzylamino)cyclobut-3-ene-1,2-dione] | > 1 µM
16 | Cc1ccc(CNc2c(Nc3ccc4[nH]cnc4c3)c(=O)c2=O)cc1O [Compound A92, 3-(1H-benzimidazol-5-ylamino)-4-(3-hydroxy-4-methylbenzylamino)cyclobut-3-ene-1,2-dione] | > 1 µM
17 | COc1cccc(CNc2c(Nc3ccc4ncsc4c3)c(=O)c2=O)c1 [Compound A122, 3-(benzothiazol-6-ylamino)-4-(3-methoxy-benzylamino)cyclobut-3-ene-1,2-dione] | > 1 µM

Row | Compound | IC50
18 | O=c1c(NCc2ccc(F)c(O)c2)c(Nc2ccc3[nH]cnc3c2)c1=O [Compound A84, 3-(1H-benzimidazol-5-ylamino)-4-(4-fluoro-3-hydroxybenzylamino)cyclobut-3-ene-1,2-dione] | < 1 µM
19 | CN(C)c1ccc(CNc2c(Nc3ccc4[nH]cnc4c3)c(=O)c2=O)cc1 [Compound A147, 3-(1H-benzimidazol-5-ylamino)-4-(4-dimethylaminobenzylamino)cyclobut-3-ene-1,2-dione] | > 1 µM
20 | CN(C)CCNC(=O)CC(Nc1c(Nc2ccc3[nH]cnc3c2)c(=O)c1=O)c1cccc(O)c1 (stereo not shown) [Compound A113, 3-[2-(1H-benzimidazol-5-ylamino)-3,4-dioxo-cyclobut-1-enylamino]-N-(2-dimethylamino-ethyl)-3-(3-hydroxyphenyl)propionamide] | > 1 µM
21 | CS(=O)(=O)Nc1ccc(CNc2c(Nc3ccc4[nH]cnc4c3)c(=O)c2=O)cc1 [Compound A156, 3-(1H-benzimidazol-5-ylamino)-4-(4-methyl-sulfonylaminobenzylamino)cyclobut-3-ene-1,2-dione] | > 1 µM
22 | O=c1c(NCc2cccc(O)c2)c(Nc2ccc3[nH]c(S)nc3c2)c1=O [Compound A40, 3-(2-mercapto-1H-benzimidazol-5-ylamino)-4-(3-hydroxybenzylamino)cyclobut-3-ene-1,2-dione] | > 1 µM
23 | CCN(CC)CCn1cnc2ccc(Nc3c(NCc4cccc(S(N)(=O)=O)c4)c(=O)c3=O)cc21 [Compound A71, 3-[3-(2-diethylaminoethyl)-3H-benzimidazol-5-ylamino]-4-(3-aminosulfonylbenzylamino)-cyclobut-3-ene-1,2-dione] | > 1 µM
24 | CC(=O)Nc1cccc(CNc2c(Nc3ccc4[nH]cnc4c3)c(=O)c2=O)c1 [Compound A45, 3-(1H-benzimidazol-5-ylamino)-4-(3-acetamidobenzylamino)cyclobut-3-ene-1,2-dione] | > 1 µM
25 | CCN(CC)CCn1cnc2ccc(Nc3c(NCc4ccc(-c5nnn[nH]5)cc4)c(=O)c3=O)cc21 [Compound A167, 3-[3-(2-diethylaminoethyl)-3H-benzimidazol-5-ylamino]-4-[4-(1H-tetrazol-5-yl)benzyl-amino]cyclobut-3-ene-1,2-dione] | > 1 µM
26 | CS(=O)(=O)c1ccc(CNc2c(Nc3ccc4[nH]cnc4c3)c(=O)c2=O)cc1 [Compound A150, 3-(1H-benzimidazol-5-ylamino)-4-(4-methyl-sulfonylbenzylamino)cyclobut-3-ene-1,2-dione] | > 1 µM
27 | COCCn1cnc2ccc(Nc3c(NCc4cccc(S(N)(=O)=O)c4)c(=O)c3=O)cc21 [Compound A70, 3-[3-(2-methoxyethyl)-3H-benzimidazol-5-ylamino]-4-(3-aminosulfonylbenzylamino)-cyclobut-3-ene-1,2-dione] | > 1 µM
28 | CNS(=O)(=O)c1cccc(CNc2c(Nc3ccc4[nH]cnc4c3)c(=O)c2=O)c1 [Compound A44, 3-(1H-benzimidazol-5-ylamino)-4-[3-(methyl-aminosulfonyl)benzylamino]cyclobut-3-ene-1,2-dione] | > 1 µM
29 | Cc1c(O)cccc1CNc1c(Nc2ccc3[nH]cnc3c2)c(=O)c1=O [Compound A97, 3-(1H-benzimidazol-5-ylamino)-4-(3-hydroxy-2-methylbenzylamino)cyclobut-3-ene-1,2-dione] | > 1 µM
30 | O=c1c(NCc2cccc(C(F)(F)F)c2)c(Nc2ccc3[nH]cnc3c2)c1=O [Compound A37, 3-(1H-benzimidazol-5-ylamino)-4-(3-trifluoro-methylbenzylamino)cyclobut-3-ene-1,2-dione] | > 1 µM
31 | O=c1c(NCc2cccc(O)c2)c(Nc2ccc3[nH]c(C(F)(F)F)nc3c2)c1=O [Compound A10, 3-(1H-benzimidazol-2-trifluoromethyl-5-yl-amino)-4-(3-hydroxybenzylamino)cyclobut-3-ene-1,2-dione] | > 1 µM
32 | O=c1c(NCc2cccc(OS(=O)(=O)C(F)(F)F)c2)c(Nc2ccc3[nH]cnc3c2)c1=O [Compound A133, 3-(1H-benzimidazol-5-ylamino)-4-(3-trifluoro-methylsulfonyloxybenzylamino)cyclobut-3-ene-1,2-dione] | > 1 µM
33 | CS(=O)(=O)Oc1cccc(CNc2c(Nc3ccc4[nH]cnc4c3)c(=O)c2=O)c1 [Compound A132, 3-(1H-benzimidazol-5-ylamino)-4-(3-methyl-sulfonyloxybenzylamino)cyclobut-3-ene-1,2-dione] | > 1 µM
34 | O=c1c(NCc2cccc(O)c2)c(Nc2ccc3c(c2)NCC3)c1=O [Compound A42, 3-(2,3-dihydro-1 H-indol-6-ylamino)-4-(3-hydroxybenzylamino)cyclobut-3-ene-1,2-dione] | > 1 µM
